Patent US20230048888A1, “USE OF TRIAZOLOTRIAZINE DERIVATIVE IN TREATMENT OF DISEASES” (ZHEJIANG VIMGREEN PHARMACEUTICALS, LTD., priority 2019, published 2023)

Tests used:
[1] = target: T1, Human adenosine ADORA2A receptor membrane protein (Homo sapiens, UniProt P29274); experiment: Radioisotope ligand competitive binding, ADORA2A ([3H] CGS-21680); conditions: ADORA2A (IC50, nM, n = 3), binding test
T1 construct: purchased PerkinElmer RBHA2AM400UA
Procedure: ADORA2A: 50 mM Tris-HCl pH 7.4, 10 mM MgCl2, 1 mM EDTA
4) Preparation of compounds: the test compounds and the reference compounds were separately diluted with 100% DMSO.
1 μL of a sample to be tested and 1 μL of a reference compound were added to a 96-well plate in sequence. […] 100 μL of cells and 100 μL of isotopes were added to all experimental wells. The 96-well plate was sealed; ADORA1, ADORA2B, and ADORA3 were incubated for 1 hour on a shaker (300 rpm) at room temperature (22° C.); and ADORA2A was incubated for 2 hours on a shaker (300 rpm) at room temperature (22° C.). At the same time, a GF/C filter plate was soaked with ADORA1, ADORA2A, ADORA2B, and ADORA3 by using 0.3% PEI for at least 30 minutes at room temperature, at 50 μL/well. After the incubation was completed, the incubated reaction system was collected onto the GF/C filter plate with a Harvester, washed 4 times and then dried for 0.5 hours in an oven at 50° C. The bottom of the dried GF/C filter plate was sealed with a film, 50 μL of scintillation solution was added to each well, which was then sealed with a Top-seal-A film. With Microbeta readings, the data was analyzed by GraphPad Prism 5.0.
% Inhibition=100×(1−(Sample_raw value−Low control_Average)/(High control_Average−Low control_Average))
The data was fitted with “log(inhibitor) vs response-variable slope” in GraphPad Prism 5.0 to obtain IC50.

[2] = tested on: 6-OHDA Parkinson's disease model with L-DOPA resistance; experiment: 6-OHDA-induced rat rotation experiment, second stage: L-DOPA resistance (rotation response time); type: in vivo, Wistar rats
Source text: After long-term use of levodopa, patients with Parkinson's disease are prone to drug resistance (end-of-dose phenomenon). That is, the duration of its pharmaceutical effect tends to gradually become shorter (shortened opening period), its efficacy will become weaker and weaker, and the symptoms of the patients are becoming more and more uncontrollable. By the combined use with the test compound, the efficacy of levodopa can be restored for patients with Parkinson's disease in the off phase, who have already experienced the end-of-dose phenomenon. The rat model of Parkinson's disease was constructed by fixed-point injection of 6-hydroxydopamine (6-OHDA) to damage the substantia nigra striatum, and then the animals were administrated with levodopa (L-DOPA)/Benserazide (BID) for a long term (3-4 weeks as planned). […] On Day 22, at 60 minutes before the intraperitoneal injection of L-DOPA (20 mg/kg)/Benserazide (5 mg/kg), each test group was orally administered with the vehicle, test drug or positive drug. […] Four rotation tests were performed on Days 0, 7, 14 and 21 respectively. On the day of test, both the test drug and the control drug were administered orally only once. On this day, all test animals were also administered with L-DOPA (20 mg/kg)/Benserazide (5 mg/kg) once by intraperitoneal injection to induce rotation. In the second stage, the time for counting rotation with the rotation counter is 180 min. [table] In the second stage, after the intraperitoneal injection of L-DOPA/Benserazide to the experimental animals, the total number of rotations was recorded every 5 min, and the number of rotations per 5 min was calculated based on this, and the 5 min with the largest number of rotations was found from it, and the number of rotations within this 5 min was defined as the peak number of rotations. The first 5 minutes when the number of rotations increased to 20% of the peak number of rotations was the starting point of the rotation response time, and the first 5 minutes when the number of rotations dropped to 20% of the peak number of rotations was the terminating point of the rotation response time. The time between the starting point and the terminating point was regarded as the rotation response time. The test results are represented as “mean±standard deviation”. The data was statistically analyzed by the SPSS16.0 software package. One-way ANOVA, paired sample T test and independent sample T test were used for comparison, with P<0.05 showing a statistical difference.

[3] = Group 5 (10 mg/kg, Day 22) + L-DOPA/Benserazide, before test drug
[4] = Group 8: 10 mg/kg oral BID*21 + L-DOPA/Benserazide
[5] = Group 3 (7.5 mg/kg, Day 22) + L-DOPA/Benserazide, before test drug
[6] = Group 4 (15 mg/kg, Day 22) + L-DOPA/Benserazide, before test drug
[7] = Group 6 (30 mg/kg, Day 22) + L-DOPA/Benserazide, before test drug
[8] = Group 7: 5 or 10 mg/kg oral BID*21 + L-DOPA/Benserazide

T1 sequence (P29274 whole entry): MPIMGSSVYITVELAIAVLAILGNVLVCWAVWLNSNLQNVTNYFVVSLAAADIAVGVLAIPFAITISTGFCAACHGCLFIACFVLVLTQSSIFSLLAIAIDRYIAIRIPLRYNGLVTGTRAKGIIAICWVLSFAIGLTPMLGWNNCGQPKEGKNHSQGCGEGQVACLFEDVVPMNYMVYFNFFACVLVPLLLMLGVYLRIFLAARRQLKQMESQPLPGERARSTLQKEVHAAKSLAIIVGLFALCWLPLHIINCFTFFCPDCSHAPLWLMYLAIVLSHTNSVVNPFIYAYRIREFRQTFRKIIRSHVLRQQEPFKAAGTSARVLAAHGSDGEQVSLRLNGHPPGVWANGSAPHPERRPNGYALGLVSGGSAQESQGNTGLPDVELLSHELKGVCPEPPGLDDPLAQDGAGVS

Compound: Nc1nc(NCCc2ccc(NC3COC3)cc2)nc2nc(-c3ccco3)nn12 [Compound 22, 2-(furan-2-yl)-N5-(4-(oxetan-3-ylamino)phenethyl)-[1,2,4]triazolo[1,5-a][1,3,5]triazine-5,7-diamine]
- IC50 ([1]; Table 10 (IC50)): 0.96 ± 0.11 nM
- IC50 ([1]; Table 11): 0.85 nM

Compound: CCn1c(=O)c2c(nc(/C=C/c3ccc(OC)c(OC)c3)n2C)n(CC)c1=O [Istradefylline, reference compound]
- Rotational reaction time - Day 0 [2, 3]: 116.1 ± 34.4 min
- Rotational reaction time - Day 7 [2, 3]: 126.7 ± 10.6 min
- Rotational reaction time - Day 14 [2, 3]: 116.3 ± 13.8 min
- Rotational reaction time - Day 21 [2, 3]: 114.4 ± 15.9 min
- Rotational reaction time - Day 22 ([2]; Group 5: 10 mg/kg single oral Day 22 + L-DOPA/Benserazide): 150.6 ± 37.8& min
- Rotational reaction time - Day 0 [2, 4]: 161.5 ± 14.2 min
- Rotational reaction time - Day 7 [2, 4]: 125.0 ± 23.5 min

Compound: Cn1nnc(-c2ccc(CCNc3nc(N)n4nc(-c5ccco5)nc4n3)cc2)n1 [Compound 40, N5-(4-(2-methyl-2H-tetrazol-5-yl)phenethyl)-2-(furan-2-yl)-[1,2,4]triazolo[1,5-a][1,3,5]triazine-5,7-diamine]
- IC50 ([1]; Table 10 (IC50)): 1.85 ± 0.27 nM
- IC50 ([1]; Table 11): 1.64 nM

Compound: CC(=O)O.Nc1nc(NCCc2ccc(NC3COC3)cc2)nc2nc(-c3ccco3)nn12 [Acetate of Compound 22, 2-(furan-2-yl)-N5-(4-(oxetane-3-ylamino)phenethyl)-[1,2,4]triazolo[1,5-a][1,3,5]triazine-5,7-diamine acetate]
- Rotational reaction time - Day 0 [2, 5]: 129.0 ± 9.1 min
- Rotational reaction time - Day 7 [2, 5]: 110.0 ± 27.1 min
- Rotational reaction time - Day 14 [2, 5]: 109.5 ± 11.7 min
- Rotational reaction time - Day 21 [2, 5]: 111.5 ± 14.0 min
- Rotational reaction time - Day 22 ([2]; Group 3: 7.5 mg/kg single oral Day 22 + L-DOPA/Benserazide): 133.5 ± 30.0^ min
- Rotational reaction time - Day 0 [2, 6]: 128.9 ± 11.7 min
- Rotational reaction time - Day 7 [2, 6]: 113.3 ± 13.0 min
- Rotational reaction time - Day 14 [2, 6]: 111.1 ± 17.8 min
- Rotational reaction time - Day 21 [2, 6]: 97.5 ± 42.7 min
- Rotational reaction time - Day 22 ([2]; Group 4: 15 mg/kg single oral Day 22 + L-DOPA/Benserazide): 146.3 ± 37.0& min
- Rotational reaction time - Day 0 [2, 7]: 135.0 ± 13.1 min
- Rotational reaction time - Day 7 [2, 7]: 121.0 ± 13.3 min
- Rotational reaction time - Day 14 [2, 7]: 110.6 ± 21.9 min
- Rotational reaction time - Day 21 [2, 7]: 104.4 ± 23.0 min
- Rotational reaction time - Day 22 ([2]; Group 6: 30 mg/kg single oral Day 22 + L-DOPA/Benserazide): 153.9 ± 22.7& min
- Rotational reaction time - Day 0 [2, 8]: 150.5 ± 11.9 min
- Rotational reaction time - Day 7 [2, 8]: 145.6 ± 3.0 min
- Rotational reaction time - Day 14 [2, 8]: 133.9 ± 8.9 min
- Rotational reaction time - Day 21 [2, 8]: 128.3 ± 13.5 min
- Effect on body weight of the test animal ([2]; during the test period, vs model control group): no significant effect on the body weight
